In the supplement of paper PMC10307832:

Columns and labels:
Experiment in all cases: relative viability (nuclei count vs DMSO), 5 days (fraction); higher = more cells survive
H3255 = test system: H3255
Outline: (§1)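 Nuclei were stained with Hoechst during a one-step fixation (final 0.05% Triton X-100, 1% formaldehyde, 1 ug/ml Hoechst) carried out 5 days after dosing, then counted on 4× images. The cells, lung cancer lines in 1536-well plates, had been dosed by pin tool the day after seeding with one drug alone or a fixed anchor-drug dose plus five library-drug doses (not always all listed) in √10 steps. Relative viability is the nuclei count in treated wells divided by that in vehicle wells, and each value is the median of duplicate plates.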

NCI-H1975 = test system: NCI-H1975
Outline: as §1

NCI-H2228 = test system: NCI-H2228
Outline: as §1

HCC-366 = test system: HCC-366
Outline: as §1

LCLC-103H = test system: LCLC-103H
Outline: as §1

NCI-H661 = test system: NCI-H661
Outline: as §1

PC-14 = test system: PC-14
Outline: as §1

LC-2-ad = test system: LC-2-ad
Outline: as §1

NCI-H23 = test system: NCI-H23
Outline: as §1

UMC-11 = test system: UMC-11
Outline: as §1

NCI-H2087 = test system: NCI-H2087
Outline: as §1

COR-L23 = test system: COR-L23
Outline: as §1

HCC-15 = test system: HCC-15
Outline: as §1

NCI-H2085 = test system: NCI-H2085
Outline: as §1

NCI-H1666 = test system: NCI-H1666
Outline: as §1

NCI-H1437 = test system: NCI-H1437
Outline: as §1

HCC-827 = test system: HCC-827
Outline: as §1

ABC-1 = test system: ABC-1
Outline: as §1

NCI-H2009 = test system: NCI-H2009
Outline: as §1

LXF-289 = test system: LXF-289
Outline: as §1

PC-3 [JPC-3] = test system: PC-3 [JPC-3]
Outline: as §1

SK-MES-1 = test system: SK-MES-1
Outline: as §1

SMILES: Cc1csc(=NC2CCCCC2)n1/N=C/c1ccc(O)c(O)c1O [MIM1] + C[C@]1(O)C[C@@H](c2nc(-c3ccc4ccc(-c5ccccc5)nc4c3)c3c(N)nccn32)C1 [Linsitinib] (partner 1 µM)
- relative viability (H3255; first compound 0.2 µM): 0.901
- relative viability (H3255; first compound 0.6325 µM): 0.918
- relative viability (H3255; first compound 2 µM): 0.883
- relative viability (H3255; first compound 6.325 µM): 0.637
- relative viability (H3255; first compound 20 µM): 0.406
- relative viability (NCI-H1975; first compound 0.2 µM): 0.869
- relative viability (NCI-H1975; first compound 0.6325 µM): 1.12
- relative viability (NCI-H1975; first compound 2 µM): 0.796
- relative viability (NCI-H1975; first compound 6.325 µM): 0.525
- relative viability (NCI-H1975; first compound 20 µM): 0.546
- relative viability (NCI-H2228; first compound 0.2 µM): 0.752
- relative viability (NCI-H2228; first compound 0.6325 µM): 0.638
- relative viability (NCI-H2228; first compound 2 µM): 0.877
- relative viability (NCI-H2228; first compound 6.325 µM): 0.217
- relative viability (NCI-H2228; first compound 20 µM): 0.208
- relative viability (HCC-366; first compound 0.2 µM): 0.511
- relative viability (HCC-366; first compound 0.6325 µM): 0.715
- relative viability (HCC-366; first compound 2 µM): 0.565
- relative viability (HCC-366; first compound 6.325 µM): 0.361
- relative viability (HCC-366; first compound 20 µM): 0.0221
- relative viability (LCLC-103H; first compound 0.2 µM): 0.994
- relative viability (LCLC-103H; first compound 0.6325 µM): 1.08
- relative viability (LCLC-103H; first compound 2 µM): 1.22
- relative viability (LCLC-103H; first compound 6.325 µM): 0.999
- relative viability (LCLC-103H; first compound 20 µM): 1.05
- relative viability (NCI-H661; first compound 0.2 µM): 0.575
- relative viability (NCI-H661; first compound 0.6325 µM): 0.737
- relative viability (NCI-H661; first compound 2 µM): 0.547
- relative viability (NCI-H661; first compound 6.325 µM): 0.449
- relative viability (NCI-H661; first compound 20 µM): 0.255
- relative viability (PC-14; first compound 0.2 µM): 0.893
- relative viability (PC-14; first compound 0.6325 µM): 0.932
- relative viability (PC-14; first compound 2 µM): 0.956
- relative viability (PC-14; first compound 6.325 µM): 0.719
- relative viability (PC-14; first compound 20 µM): 0.499
- relative viability (LC-2-ad; first compound 0.2 µM): 0.794
- relative viability (LC-2-ad; first compound 0.6325 µM): 0.744
- relative viability (LC-2-ad; first compound 2 µM): 0.856
- relative viability (LC-2-ad; first compound 6.325 µM): 0.547
- relative viability (LC-2-ad; first compound 20 µM): 0.132
- relative viability (NCI-H23; first compound 0.2 µM): 0.553
- relative viability (NCI-H23; first compound 2 µM): 0.488
- relative viability (NCI-H23; first compound 6.325 µM): 0.58
- relative viability (NCI-H23; first compound 20 µM): 0.215
- relative viability (UMC-11; first compound 0.2 µM): 1.02
- relative viability (UMC-11; first compound 0.6325 µM): 1.01
- relative viability (UMC-11; first compound 2 µM): 1.02
- relative viability (UMC-11; first compound 6.325 µM): 0.66
- relative viability (UMC-11; first compound 20 µM): 0.233
- relative viability (NCI-H2087; first compound 0.2 µM): 0.935
- relative viability (NCI-H2087; first compound 0.6325 µM): 0.833
- relative viability (NCI-H2087; first compound 2 µM): 0.989
- relative viability (NCI-H2087; first compound 6.325 µM): 0.693
- relative viability (NCI-H2087; first compound 20 µM): 0.428
- relative viability (COR-L23; first compound 0.2 µM): 0.77
- relative viability (COR-L23; first compound 0.6325 µM): 1.12
- relative viability (COR-L23; first compound 2 µM): 1.01
- relative viability (COR-L23; first compound 6.325 µM): 0.813
- relative viability (COR-L23; first compound 20 µM): 0.498
- relative viability (HCC-15; first compound 0.2 µM): 0.901
- relative viability (HCC-15; first compound 0.6325 µM): 0.808
- relative viability (HCC-15; first compound 2 µM): 0.941
- relative viability (HCC-15; first compound 6.325 µM): 0.476
- relative viability (HCC-15; first compound 20 µM): 0.211
- relative viability (NCI-H2085; first compound 0.2 µM): 1.04
- relative viability (NCI-H2085; first compound 0.6325 µM): 0.912
- relative viability (NCI-H2085; first compound 2 µM): 0.971
- relative viability (NCI-H2085; first compound 6.325 µM): 0.815
- relative viability (NCI-H2085; first compound 20 µM): 0.934
- relative viability (NCI-H1666; first compound 0.2 µM): 0.791
- relative viability (NCI-H1666; first compound 0.6325 µM): 0.753
- relative viability (NCI-H1666; first compound 2 µM): 0.732
- relative viability (NCI-H1666; first compound 6.325 µM): 0.606
- relative viability (NCI-H1666; first compound 20 µM): 0.526
- relative viability (NCI-H1437; first compound 0.2 µM): 0.967
- relative viability (NCI-H1437; first compound 0.6325 µM): 0.985
- relative viability (NCI-H1437; first compound 2 µM): 1.05
- relative viability (NCI-H1437; first compound 6.325 µM): 0.507
- relative viability (NCI-H1437; first compound 20 µM): 0.151
- relative viability (HCC-827; first compound 0.2 µM): 0.955
- relative viability (HCC-827; first compound 0.6325 µM): 0.971
- relative viability (HCC-827; first compound 2 µM): 0.959
- relative viability (HCC-827; first compound 6.325 µM): 0.387
- relative viability (HCC-827; first compound 20 µM): 0.741
- relative viability (ABC-1; first compound 0.2 µM): 0.769
- relative viability (ABC-1; first compound 0.6325 µM): 1.14
- relative viability (ABC-1; first compound 2 µM): 0.651
- relative viability (ABC-1; first compound 6.325 µM): 0.388
- relative viability (ABC-1; first compound 20 µM): 0.24
- relative viability (NCI-H2009; first compound 0.2 µM): 1.25
- relative viability (NCI-H2009; first compound 0.6325 µM): 1.18
- relative viability (NCI-H2009; first compound 2 µM): 1.18
- relative viability (NCI-H2009; first compound 6.325 µM): 1.06
- relative viability (NCI-H2009; first compound 20 µM): 1.05
- relative viability (LXF-289; first compound 0.2 µM): 0.943
- relative viability (LXF-289; first compound 0.6325 µM): 0.923
- relative viability (LXF-289; first compound 2 µM): 0.943
- relative viability (LXF-289; first compound 6.325 µM): 0.787
- relative viability (LXF-289; first compound 20 µM): 0.624
- relative viability (PC-3 [JPC-3]; first compound 0.2 µM): 0.946
- relative viability (PC-3 [JPC-3]; first compound 0.6325 µM): 0.952
- relative viability (PC-3 [JPC-3]; first compound 2 µM): 1
- relative viability (PC-3 [JPC-3]; first compound 6.325 µM): 0.805
- relative viability (PC-3 [JPC-3]; first compound 20 µM): 0.845
- relative viability (SK-MES-1; first compound 0.2 µM): 0.988
- relative viability (SK-MES-1; first compound 0.6325 µM): 0.988
- relative viability (SK-MES-1; first compound 2 µM): 1.02
- relative viability (SK-MES-1; first compound 6.325 µM): 0.853
- relative viability (SK-MES-1; first compound 20 µM): 0.848
